Results as given in patent US7910622B2, “Modulation of bacterial quorum sensing with synthetic ligands” (Wisconsin Alumni Research Foundation, priority 2007, dated 2011).
Like-named read-outs stand apart in the source and are kept apart here.

Experiments:
LasR = target: T1, LasR (Pseudomonas aeruginosa, UniProt P25084); assay: cell-based; settings: for activation at 5 µM: read-out: E. coli-LasR Activation [%], 5 μM ligand; for activation at 5 µM / E. coli-LasR Activation [%]: E. coli DH5α (pJN105L pSC11), normalized to OdDHL; for E. coli-LasR Activation [%]: 5 μM ligand
T1 construct: expressed in transfected cells; host or cells: E. coli DH5α (pJN105L pSC11), arabinose-induced
T1 sequence (P25084 whole entry): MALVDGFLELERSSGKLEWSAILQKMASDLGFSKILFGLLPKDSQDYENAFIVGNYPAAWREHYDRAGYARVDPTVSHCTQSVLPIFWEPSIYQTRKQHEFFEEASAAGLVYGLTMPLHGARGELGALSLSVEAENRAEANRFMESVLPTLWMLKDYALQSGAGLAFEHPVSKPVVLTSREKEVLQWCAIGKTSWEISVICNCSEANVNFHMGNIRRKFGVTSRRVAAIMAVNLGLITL
How it was run: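 E. coli DH5α carrying pJN105L/pSC11 grown to OD600 0.3, LasR expression induced with arabinose (4 mg/mL), then incubated with AHLs at 37 °C to OD600 0.45. LasR activity read by β-galactosidase reporter assay; IC50/EC50 from sigmoidal dose-response fits.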

[1] = test system: wild-type V. fischeri ES114; assay: Luminescence dose response in wild-type V. fischeri ES114; assay type: cell-based, Vibrio fischeri; settings: relative to OHHL
Procedure: Vibrio fischeri assay procedures. For primary agonism assays, an appropriate amount of concentrated control or PHL (11) stock solution, to give a final concentration of 200 μM, was added to wells in a 96-well multititer plate. An overnight culture of V. fischeri ES114 (WT, Δ-luxI or Δ-luxR) was diluted 1:10 with LBS medium. A-200 μL portion of the diluted culture was added to each well of the plate. Plates were grown at RT with shaking (200 rpm) until the OD600=0.35-0.4 (4-6 h). Luminescence then was measured and normalized to cell density per well. […] Similar methods were used for dose response assays, except the concentrations of controls and PHLs 11 used were between 0.02 and 2×10^5 nM. All assays were performed in triplicate. IC50 and EC50 values were calculated using GraphPad Prism software using a sigmoidal curve fit.

[2] = target: QscR:DNA binding (PA1897 promoter) (Pseudomonas aeruginosa, UniProt G3XD77)
Sequence of QscR:DNA binding (PA1897 promoter) (G3XD77 entry or part of it): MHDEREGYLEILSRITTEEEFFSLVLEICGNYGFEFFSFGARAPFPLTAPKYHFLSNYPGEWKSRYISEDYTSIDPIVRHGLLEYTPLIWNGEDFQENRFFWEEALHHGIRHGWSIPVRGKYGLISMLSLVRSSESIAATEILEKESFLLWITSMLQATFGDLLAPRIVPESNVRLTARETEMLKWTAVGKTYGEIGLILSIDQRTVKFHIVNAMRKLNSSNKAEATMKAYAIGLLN
Text: We sought to obtain further insights into the mechanism of QscR modulation by non-native AHLs. […] We therefore performed electromobility shift assays (EMSA) on purified QscR and radiolabeled PA1897 promoter in the presence of selected QscR antagonists and 1.

QscR = target: T2, QscR (Pseudomonas aeruginosa, UniProt G3XD77); assay: QscR competitive antagonism reporter gene assay (β-gal) against DDHL in recombinant E. coli (pJN105Q); assay type: cell-based
T2 construct: expressed in transfected cells; host or cells: recombinant E. coli (pJN105Q) with β-gal promoter fusion
T2 sequence (G3XD77 entry or part of it): as above
Procedure: The bacterial reporter strains used in this study were: E. coli pJN105L (P. aeruginosa, LasR), P. aeruginosa MW1 yfp (LasR), E. coli pJN105Q (P. aeruginosa, QscR), A. tumefaciens WCF (TraR), and V. fischeri ES114-luxI (LuxR).
We screened our AHL libraries for agonistic and antagonistic activity against QscR using a previously reported, recombinant E. coli strain that reports QscR activity via the production of β-galactosidase (β-gal) from a promoter fusion. […] All AHLs were examined at 5 μM concentrations.

Compound | activation at 5 µM (LasR) [%] | E. coli-LasR Activation [%] (LasR) | also measured
O=C(Cc1ccc(Br)cc1)N[C@H]1CCOC1=O [A17, 4-bromo-phenylacetanoyl HL, reference compound] | 0 |  | 
O=C(CCCc1c[nH]c2ccccc12)N[C@H]1CCOC1=O [A18, indole AHL, reference compound] |  | 3 | 
O=C(Cc1ccc(Br)cc1)N[C@H]1CCOC1=O [compound 8, N-(4-bromo-phenylacetanoyl)-L-homoserine lactone, reference compound] |  | 0 | 
O=C(Cc1ccc(-c2ccccc2)cc1)NC1CCOC1=O (stereo not drawn) [B21, 4-phenyl PHL] | 0 |  | 
3-nitro PHL [B17] |  | 11 | activity in wild-type V. fischeri [1]: super-agonistic activity
O=C(Cc1ccc(-c2ccccc2)cc1)N[C@H]1CCOC1=O [C18, 4-phenyl PHL] | 0 |  | inhibition of OdDHL-dependent QscR:DNA binding ([2]; 100:1 ratio with OdDHL): 85%; reduction of QscR:DNA binding ([2]; 1000:1 ratio vs. OdDHL): 100%; inhibition of OdDHL-dependent QscR:DNA binding ([2]; EMSA): capable of inhibiting OdDHL (1)-dependent QscR:DNA binding; IC50 (QscR): 30 nM; Activation (%) (LasR; E. coli-LasR, Library C primary agonism screen): 0%
